{"source": "paper PMC11589570", "about": "“Critical assessment of LC3/GABARAP ligands used for degrader development and ligandability of LC3/GABARAP binding pockets” (Nature Communications, 2024)", "key": {"RPE1 cells": {"tested_on": "RPE1 cells", "assay": "Cell growth assay (IncuCyte confluence over 72 h)", "assay_type": "cell-based", "conditions": "for RPE1 cell growth: listed as 8F20", "procedure,_shortened": "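Phase confluence (% area covered by cells) imaged every 2 h for 72 h after compound addition; cells in DMEM/10% FBS, seeded 24 h before treatment. Controls were 0.1% DMSO, 250 nM Torin1 and 200 ng/mL Bafilomycin (final). Each point averages three wells.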"}, "GABARAP": {"biological_target": "GABARAP (Homo sapiens, UniProt O95166)", "sequence (O95166 1-116)": "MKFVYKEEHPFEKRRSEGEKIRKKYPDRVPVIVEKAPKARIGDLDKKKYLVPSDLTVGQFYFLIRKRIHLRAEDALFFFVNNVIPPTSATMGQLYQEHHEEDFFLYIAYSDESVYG", "assay": "FP assay with Cy5-labelled p62 LIR tracer (protein titration and tracer displacement)", "assay_type": "binding", "conditions": "for normalized FP signal, p62 LIR tracer displacement: GABARAP; for compound titration GABARAP (displacement curve, FP signal): two replicate columns per compound"}, "[1]": {"conditions": "log10 concentration [M] -7.79588"}}, "note": "Where “and” joins values, the source holds several entries; their conditions need not be identical. Equal values may be shown once. Entries after “also recorded” stand apart in the source; their conditions may differ."}
{"smiles": "Cc1ccc(C(=O)N(CCCN)[C@@H](c2nc3cc(Cl)ccc3c(=O)n2Cc2ccccc2)C(C)C)cc1", "note": "[compound 3, (R)-N-(3-aminopropyl)-N-(1-(3-benzyl-7-chloro-4-oxo-3,4-dihydroquinazolin-2-yl)−2-methylpropyl)−4-methylbenzamide]", "values": [{"measurement": "RPE1 cell growth", "setting": "RPE1 cells; 500 nM, 34 h", "value": "24 and 12 and 17"}, {"measurement": "RPE1 cell growth", "setting": "RPE1 cells; 500 nM, 36 h", "value": "23 and 14 and 18"}, {"measurement": "RPE1 cell growth", "setting": "RPE1 cells; 500 nM, 38 h", "value": "23 and 14 and 19"}, {"measurement": "RPE1 cell growth", "setting": "RPE1 cells; 500 nM, 40 h", "value": "11 and 16 and 21"}, {"measurement": "RPE1 cell growth", "setting": "RPE1 cells; 500 nM, 42 h", "value": "27 and 16 and 23"}, {"measurement": "RPE1 cell growth", "setting": "RPE1 cells; 500 nM, 44 h", "value": "29 and 17 and 23"}, {"measurement": "RPE1 cell growth", "setting": "RPE1 cells; 500 nM, 46 h", "value": "31 and 17 and 24"}, {"measurement": "RPE1 cell growth", "setting": "RPE1 cells; 500 nM, 48 h", "value": "32 and 17 and 25"}, {"measurement": "RPE1 cell growth", "setting": "RPE1 cells; 500 nM, 54 h", "value": "33 and 17 and 28"}, {"measurement": "RPE1 cell growth", "setting": "RPE1 cells; 1 uM, 34 h", "value": "15 and 25 and 13"}, {"measurement": "RPE1 cell growth", "setting": "RPE1 cells; 1 uM, 36 h", "value": "17 and 25 and 14"}, {"measurement": "RPE1 cell growth", "setting": "RPE1 cells; 1 uM, 38 h", "value": "17 and 24 and 15"}, {"measurement": "RPE1 cell growth", "setting": "RPE1 cells; 1 uM, 40 h", "value": "18 and 20 and 17"}, {"measurement": "RPE1 cell growth", "setting": "RPE1 cells; 1 uM, 42 h", "value": "22 and 27 and 16"}, {"measurement": "RPE1 cell growth", "setting": "RPE1 cells; 1 uM, 44 h", "value": "22 and 28 and 18"}, {"measurement": "RPE1 cell growth", "setting": "RPE1 cells; 1 uM, 46 h", "value": "22 and 28 and 17"}, {"measurement": "RPE1 cell growth", "setting": "RPE1 cells; 1 uM, 48 h", "value": "25 and 32 and 18"}, {"measurement": "RPE1 cell growth", "setting": "RPE1 cells; 1 uM, 50 h", "value": "24 and 32 and 20"}, {"measurement": "RPE1 cell growth", "setting": "RPE1 cells; 1 uM, 54 h", "value": "29 and 33 and 21"}, {"measurement": "RPE1 cell growth", "setting": "RPE1 cells; 1 uM, 56 h", "value": "28 and 34 and 21"}, {"measurement": "RPE1 cell growth", "setting": "RPE1 cells; 1 uM, 58 h", "value": 30}, {"measurement": "RPE1 cell growth", "setting": "RPE1 cells; 3 uM, 34 h", "value": "25 and 15 and 17"}, {"measurement": "RPE1 cell growth", "setting": "RPE1 cells; 3 uM, 36 h", "value": "25 and 16 and 18"}, {"measurement": "RPE1 cell growth", "setting": "RPE1 cells; 3 uM, 38 h", "value": "26 and 17 and 18"}, {"measurement": "RPE1 cell growth", "setting": "RPE1 cells; 3 uM, 40 h", "value": "23 and 18 and 19"}, {"measurement": "RPE1 cell growth", "setting": "RPE1 cells; 3 uM, 42 h", "value": "29 and 18 and 23"}, {"measurement": "RPE1 cell growth", "setting": "RPE1 cells; 3 uM, 44 h", "value": "28 and 20 and 21"}, {"measurement": "RPE1 cell growth", "setting": "RPE1 cells; 3 uM, 46 h", "value": "31 and 19 and 22"}, {"measurement": "RPE1 cell growth", "setting": "RPE1 cells; 3 uM, 48 h", "value": "31 and 19 and 23"}, {"measurement": "RPE1 cell growth", "setting": "RPE1 cells; 3 uM, 50 h", "value": "31 and 20 and 23"}, {"measurement": "RPE1 cell growth", "setting": "RPE1 cells; 3 uM, 52 h", "value": "25 and 22 and 24"}, {"measurement": "RPE1 cell growth", "setting": "RPE1 cells; 3 uM, 54 h", "value": "31 and 21 and 25"}, {"measurement": "RPE1 cell growth", "setting": "RPE1 cells; 3 uM, 56 h", "value": "34 and 19 and 25"}, {"measurement": "RPE1 cell growth", "setting": "RPE1 cells; 5 uM, 40 h", "value": "27 and 15 and 24"}, {"measurement": "effect on cell growth (confluence)", "setting": "RPE1 cells; RPE1, 72 h", "value": "significant growth reduction; also recorded: strongly suppressed cellular growth"}, {"measurement": "normalized FP signal, p62 LIR tracer displacement", "setting": "GABARAP; log10 concentration [M] -3.82391, listed as 8F20", "value": "89.6552 and 90.5172"}, {"measurement": "normalized FP signal, p62 LIR tracer displacement", "setting": "GABARAP; log10 concentration [M] -4.1549, listed as 8F20", "value": "93.7931 and 93.9655"}, {"measurement": "normalized FP signal, p62 LIR tracer displacement", "setting": "GABARAP; log10 concentration [M] -4.60206, listed as 8F20", "value": "101.379 and 97.931"}, {"measurement": "normalized FP signal, p62 LIR tracer displacement", "setting": "GABARAP; log10 concentration [M] -5, listed as 8F20", "value": "97.4138 and 100.172"}, {"measurement": "normalized FP signal, p62 LIR tracer displacement", "setting": "GABARAP; log10 concentration [M] -5.30103, listed as 8F20", "value": "96.2069 and 97.931"}, {"measurement": "normalized FP signal, p62 LIR tracer displacement", "setting": "GABARAP; log10 concentration [M] -5.69897, listed as 8F20", "value": "90 and 89.6552"}, {"measurement": "normalized FP signal, p62 LIR tracer displacement", "setting": "GABARAP; log10 concentration [M] -6.22185, listed as 8F20", "value": "96.2069 and 96.5517"}, {"measurement": "normalized FP signal, p62 LIR tracer displacement", "setting": "GABARAP; log10 concentration [M] -6.69897, listed as 8F20", "value": "96.5517 and 96.3793"}, {"measurement": "normalized FP signal, p62 LIR tracer displacement", "setting": "GABARAP; log10 concentration [M] -7.30103, listed as 8F20", "value": "100 and 98.2759"}, {"measurement": "normalized FP signal, p62 LIR tracer displacement", "setting": "GABARAP; [1]", "value": 95.5172}, {"measurement": "normalized FP signal, p62 LIR tracer displacement", "setting": "GABARAP; log10 concentration [M] -8.08092, listed as 8F20", "value": "97.069 and 98.1034"}, {"measurement": "compound titration GABARAP (displacement curve, FP signal)", "setting": "GABARAP; log10 concentration [M] -3.82391", "value": "89.6552 and 90.5172"}, {"measurement": "compound titration GABARAP (displacement curve, FP signal)", "setting": "GABARAP; log10 concentration [M] -4.1549", "value": "93.7931 and 93.9655"}, {"measurement": "compound titration GABARAP (displacement curve, FP signal)", "setting": "GABARAP; log10 concentration [M] -4.60206", "value": "101.379 and 97.931"}, {"measurement": "compound titration GABARAP (displacement curve, FP signal)", "setting": "GABARAP; log10 concentration [M] -5", "value": "97.4138 and 100.172"}, {"measurement": "compound titration GABARAP (displacement curve, FP signal)", "setting": "GABARAP; log10 concentration [M] -5.30103", "value": "96.2069 and 97.931"}, {"measurement": "compound titration GABARAP (displacement curve, FP signal)", "setting": "GABARAP; log10 concentration [M] -5.69897", "value": "90 and 89.6552"}, {"measurement": "compound titration GABARAP (displacement curve, FP signal)", "setting": "GABARAP; log10 concentration [M] -6.22185", "value": "96.2069 and 96.5517"}, {"measurement": "compound titration GABARAP (displacement curve, FP signal)", "setting": "GABARAP; log10 concentration [M] -6.69897", "value": "96.5517 and 96.3793"}, {"measurement": "compound titration GABARAP (displacement curve, FP signal)", "setting": "GABARAP; log10 concentration [M] -7.30103", "value": "100 and 98.2759"}, {"measurement": "compound titration GABARAP (displacement curve, FP signal)", "setting": "GABARAP; [1]", "value": 95.5172}]}
